Experimental data as given in patent publication US12662491B2 (Redona Therapeutics, Inc., priority 2020, dated 2026).
pIC50: −log10 of the molar value.

Molecular target: T1, Zcchc11 enzyme (Homo sapiens, UniProt Q5TAX3)
T1 construct: made in house; host or cells: HEK293 cells (Zcchc11); E. coli Rosetta II (LIN28A)
T1 sequence (Q5TAX3 212-1420): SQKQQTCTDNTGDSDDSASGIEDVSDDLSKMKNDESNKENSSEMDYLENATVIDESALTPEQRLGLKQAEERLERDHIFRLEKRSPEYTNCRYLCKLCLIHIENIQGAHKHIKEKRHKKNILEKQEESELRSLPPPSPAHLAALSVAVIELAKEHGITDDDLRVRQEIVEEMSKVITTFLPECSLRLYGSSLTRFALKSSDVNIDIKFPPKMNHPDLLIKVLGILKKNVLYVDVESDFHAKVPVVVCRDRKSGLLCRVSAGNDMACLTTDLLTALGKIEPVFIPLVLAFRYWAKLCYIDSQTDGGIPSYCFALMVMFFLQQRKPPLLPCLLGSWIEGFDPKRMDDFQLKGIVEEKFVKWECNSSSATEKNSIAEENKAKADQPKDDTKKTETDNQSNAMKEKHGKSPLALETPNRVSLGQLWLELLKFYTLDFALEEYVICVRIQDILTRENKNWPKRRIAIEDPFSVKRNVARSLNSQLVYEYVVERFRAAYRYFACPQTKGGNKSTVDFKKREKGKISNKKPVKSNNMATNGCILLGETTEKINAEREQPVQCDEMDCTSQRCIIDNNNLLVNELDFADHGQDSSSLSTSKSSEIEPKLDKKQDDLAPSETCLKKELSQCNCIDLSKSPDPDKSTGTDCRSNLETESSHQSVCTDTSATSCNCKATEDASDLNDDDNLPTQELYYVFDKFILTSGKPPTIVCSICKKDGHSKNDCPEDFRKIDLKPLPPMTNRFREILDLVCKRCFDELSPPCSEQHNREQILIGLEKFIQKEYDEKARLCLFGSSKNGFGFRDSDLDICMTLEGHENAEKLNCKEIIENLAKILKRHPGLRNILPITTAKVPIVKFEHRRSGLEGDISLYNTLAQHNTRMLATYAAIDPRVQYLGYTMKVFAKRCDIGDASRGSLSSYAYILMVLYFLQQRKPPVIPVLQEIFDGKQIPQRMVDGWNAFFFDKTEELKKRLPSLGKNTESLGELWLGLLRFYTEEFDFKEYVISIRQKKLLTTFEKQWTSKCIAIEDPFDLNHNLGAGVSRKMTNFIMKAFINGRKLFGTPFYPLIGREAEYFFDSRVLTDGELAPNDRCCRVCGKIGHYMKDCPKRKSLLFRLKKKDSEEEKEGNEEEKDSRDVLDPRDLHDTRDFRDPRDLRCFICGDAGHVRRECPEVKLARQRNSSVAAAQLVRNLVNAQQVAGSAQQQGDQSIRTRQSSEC
Experiment: TUTase assay (Zcchc11 assay, Lin28a-dependent polyuridylation of pre-let-7)
Type: biochemical
Settings: Lin28a-dependent Zcchc11 (Z11) TUTase activity; read-out: Potency Lin28a-dep Z11 IC50
Summary of the method: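 HEK293-expressed human Zcchc11 (residues 212-1420, 0.2 nM) with 10 nM LIN28A and 2 nM 5′-fluorescein pre-let-7, preincubated 30 min at room temperature, pH 7.3. Started with 5 uM UTP; poly(U) tails quenched by 3′-rhodamine A20 probe, read kinetically. IC50 from early-rate four-parameter fit; no-UTP wells define 0%.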

Structure (SMILES) | pIC50
Cc1cccnc1OC[C@H]1CCCN1c1cc2c(cc1F)c(=O)c(C(=O)O)cn2-c1ccc(O)cc1F [Compound 101, (R)-6-fluoro-1-(2-fluoro-4-hydroxy-phenyl)-7-(2-(((3-methyl-pyridin-2-yl)oxy)methyl)pyrrolidin-1-yl)-4-oxo-1,4-dihydro-quinoline-3-carboxylic acid] | ≥ 6.00
Cc1cccnc1OC[C@H]1CCCN1c1cc2c(cc1F)c(=O)c(C(=O)O)cn2C1CC1 [Compound 102, (R)-1-cyclopropyl-6-fluoro-7-(2-(((3-methyl-pyridin-2-yl)oxy)methyl)pyrrolidin-1-yl)-4-oxo-1,4-dihydro-quinoline-3-carboxylic acid] | ≥ 6.00
Cc1cccnc1OC[C@H]1CCCN1c1cc2c(cc1Cl)c(=O)c(C(=O)O)cn2-c1ccccc1 [Compound 103, (R)-6-chloro-7-(2-(((3-methyl-pyridin-2-yl)oxy)methyl)pyrrolidin-1-yl)-4-oxo-1-phenyl-1,4-dihydro-quinoline-3-carboxylic acid] | ≥ 6.00
Cc1cccnc1OC[C@H]1CCCN1c1cc2c(cc1Cl)c(=O)c(C(=O)O)cn2-c1ccc(O)cc1 [Compound 104, (R)-6-chloro-1-(4-hydroxy-phenyl)-7-(2-(((3-methyl-pyridin-2-yl)oxy)methyl)pyrrolidin-1-yl)-4-oxo-1,4-dihydro-quinoline-3-carboxylic acid] | ≥ 6.00
Cc1ccccc1OC[C@H]1CCCN1c1cc2c(cc1F)c(=O)c(C(=O)O)cn2-c1ccc(O)cc1 [Compound 105, (R)-6-fluoro-1-(4-hydroxy-phenyl)-4-oxo-7-(2-((o-tolyloxy)methyl)pyrrolidin-1-yl)-1,4-dihydro-quinoline-3-carboxylic acid] | 5.00 to 6.00
Cc1cccc(C)c1OC[C@H]1CCCN1c1cc2c(cc1F)c(=O)c(C(=O)O)cn2-c1ccc(O)cc1 [Compound 106, (R)-7-(2-((2,6-dimethyl-phenoxy)methyl)pyrrolidin-1-yl)-6-fluoro-1-(4-hydroxy-phenyl)-4-oxo-1,4-dihydro-quinoline-3-carboxylic acid] | < 4.30
O=C(O)c1cn(-c2ccc(O)cc2)c2cc(N3CCC[C@@H]3COc3ccccc3Cl)c(F)cc2c1=O [Compound 107, (R)-7-(2-((2-chlorophenoxy)methyl)pyrrolidin-1-yl)-6-fluoro-1-(4-hydroxy-phenyl)-4-oxo-1,4-dihydro-quinoline-3-carboxylic acid] | 5.00 to 6.00
CC1(n2cc(C(=O)O)c(=O)c3cc(Cl)c(N4CCC4COc4ccccn4)cc32)CC1 (stereo not drawn) [Compound 108, 6-chloro-1-(1-methyl-cyclopropyl)-4-oxo-7-(2-((pyridin-2-yloxy)methyl)azetidin-1-yl)-1,4-dihydro-quinoline-3-carboxylic acid] | 4.30 to 5.00
O=C(O)c1cn(-c2ccccc2)c2cc(N3CCC[C@@H]3COc3ncccc3Cl)c(Cl)cc2c1=O [Compound 109, (R)-6-chloro-7-(2-(((3-chloropyridin-2-yl)oxy)methyl)pyrrolidin-1-yl)-4-oxo-1-phenyl-1,4-dihydro-quinoline-3-carboxylic acid] | ≥ 6.00

Results, then the compound that gave them:

pIC50 | Structure (SMILES)
≥ 6.00 | N#Cc1cccnc1OC[C@H]1CCCN1c1cc2c(cc1Cl)c(=O)c(C(=O)O)cn2-c1ccccc1 [Compound 110, (R)-6-chloro-7-(2-(((3-cyanopyridin-2-yl)oxy)methyl)pyrrolidin-1-yl)-4-oxo-1-phenyl-1,4-dihydro-quinoline-3-carboxylic acid]
5.00 to 6.00 | O=C(O)c1cn(C2CC2)c2cc(N3CCC[C@@H]3COc3ccccn3)c(Cl)cc2c1=O [Compound 111, (R)-6-chloro-1-cyclopropyl-4-oxo-7-(2-((pyridin-2-yloxy)methyl)pyrrolidin-1-yl)-1,4-dihydro-quinoline-3-carboxylic acid]
≥ 6.00 | O=C(O)c1cn(-c2ccc(O)cc2)c2cc(N3CCC[C@@H]3CNc3ncccc3Cl)c(F)cc2c1=O [Compound 112, (R)-7-(2-(((3-chloropyridin-2-yl)amino)methyl)pyrrolidin-1-yl)-6-fluoro-1-(4-hydroxy-phenyl)-4-oxo-1,4-dihydro-quinoline-3-carboxylic acid]
≥ 6.00 | O=C(O)c1cn(-c2ccc(O)cc2)c2cc(N3CCC[C@@H]3Cn3ccc4cccnc43)c(F)cc2c1=O [Compound 113, (R)-7-(2-((1H-pyrrolo[2,3-b]pyridin-1-yl)methyl)pyrrolidin-1-yl)-6-fluoro-1-(4-hydroxy-phenyl)-4-oxo-1,4-dihydro-quinoline-3-carboxylic acid]
< 4.30 | CC1(n2cc(C(=O)O)c(=O)c3cc(Cl)c(N4CCC[C@@H]4CN4CCOCC4)cc32)CC1 [Compound 114, (R)-6-chloro-1-(1-methylcyclo-propyl)-7-(2-(morpholino-methyl)pyrrolidin-1-yl)-4-oxo-1,4-dihydro-quinoline-3-carboxylic acid]
5.00 to 6.00 | CC1(n2cc(C(=O)O)c(=O)c3cc(Cl)c(N4CCC[C@@H]4CN4CCc5cccnc54)cc32)CC1 [Compound 115, (R)-6-chloro-7-(2-((2,3-dihydro-1H-pyrrolo[2,3-b]pyridin-1-yl)methyl)pyrrolidin-1-yl)-1-(1-methylcyclo-propyl)-4-oxo-1,4-dihydro-quinoline-3-carboxylic acid]
5.00 to 6.00 | O=C(O)c1cn(-c2ccc(O)cc2)c2cc(N3CCC[C@@H]3COc3nccc4[nH]cnc34)c(F)cc2c1=O [Compound 116, (R)-7-(2-(((1H-imidazo[4,5-c]pyridin-4-yl)oxy)methyl)pyrrolidin-1-yl)-6-fluoro-1-(4-hydroxy-phenyl)-4-oxo-1,4-dihydro-quinoline-3-carboxylic acid]
≥ 6.00 | O=C(O)c1cn(-c2ccc(O)cc2)c2cc(N3CCC[C@@H]3COc3nccc4cc[nH]c34)c(F)cc2c1=O [Compound 117, (R)-7-(2-(((1H-pyrrolo[2,3-c]pyridin-7-yl)oxy)methyl)pyrrolidin-1-yl)-6-fluoro-1-(4-hydroxy-phenyl)-4-oxo-1,4-dihydro-quinoline-3-carboxylic acid]
≥ 6.00 | O=C(O)c1cn(-c2ccc(O)cc2)c2cc(N3CCC[C@@H]3COc3cc4cc[nH]c4cn3)c(F)cc2c1=O [Compound 118, (R)-7-(2-(((1H-pyrrolo[2,3-c]pyridin-5-yl)oxy)methyl)pyrrolidin-1-yl)-6-fluoro-1-(4-hydroxy-phenyl)-4-oxo-1,4-dihydro-quinoline-3-carboxylic acid]
≥ 6.00 | Cc1cccnc1OC[C@H]1CCCN1c1cc2c(cc1F)c(=O)c(C(=O)O)cn2-c1ccc(O)cc1 [Compound 119, (R)-6-fluoro-1-(4-hydroxy-phenyl)-7-(2-(((3-methylpyridin-2-yl)oxy)methyl)pyrrolidin-1-yl)-4-oxo-1,4-dihydro-quinoline-3-carboxylic acid]
≥ 6.00 | Cc1cccnc1OC[C@H]1CCCN1c1cc2c(cc1F)c(=O)c(C(=O)O)cn2-c1ccc(O)c(F)c1 [Compound 120, (R)-6-fluoro-1-(3-fluoro-4-hydroxy-phenyl)-7-(2-(((3-methylpyridin-2-yl)oxy)methyl)pyrrolidin-1-yl)-4-oxo-1,4-dihydro-quinoline-3-carboxylic acid]
≥ 6.00 | Cc1cccnc1OC[C@H]1CCCN1c1cc2c(cc1F)c(=O)c(C(=O)O)cn2-c1ccc(F)c(O)c1 [Compound 121, (R)-6-fluoro-1-(4-fluoro-3-hydroxy-phenyl)-7-(2-(((3-methylpyridin-2-yl)oxy)methyl)pyrrolidin-1-yl)-4-oxo-1,4-dihydro-quinoline-3-carboxylic acid]
